From paper PMC12015663 (Cancer Research Communications, 2025)

Key:
NF1-LOF MeWo xenograft = assay: Antitumor efficacy in vivo, NF1-LOF MeWo xenograft; design: species or system mice; conditions: 25 mg/kg orally daily for 28 days
Experimental: (§1) Female mice with tumors harboring an AGK::BRAF fusion melanoma PDX or NF1-LOF ERMS PDX were established by inoculating NOD or NOG/SCID mice, respectively, with tumor fragments harvested from stock mice. Mice with tumors harboring an NF1-LOF mutation MeWo xenograft were established in 10 mice per treatment group by inoculating 7- to 9-week-old female BALB/c nude mice on the right flank with tumor cells (5 × 10^6) in 0.1 mL of PBS mixed with Matrigel (1:1) for tumor development. For the AGK::BRAF fusion melanoma PDX model, 7- to 8-week-old mice were inoculated subcutaneously on the right flank and randomized into eight mice per treatment group. […]
(§2) Randomization was performed based on the “Matched distribution” method (StudyDirector software, version 3.1.399.19) with the date of randomization denoted as day 0. Tumor volumes and body weight were measured twice per week after randomization. Tumor volume was measured in two dimensions (2D) using a caliper, and the volume was expressed in mm^3 using the formula V = (L × W × W)/2, in which V was tumor volume, L was tumor length (the longest tumor dimension), and W was tumor width (the longest tumor dimension perpendicular to L). Percentage change in tumor volume and body weight was calculated using StudyDirector software (version 3.1.399.19). […]

PK parameters in human = assay type: in vivo; conditions: 600 mg, QW
ARAF = molecular target: T1, ARAF (Homo sapiens, UniProt P10398); assay: Time-resolved fluorescence energy transfer binding assay (KINETICfinder); conditions: partial length active recombinant human ARAF at 5 nmol/L; 60 minutes, room temperature; singlicate
T1 sequence (P10398 310-570 limits assumed): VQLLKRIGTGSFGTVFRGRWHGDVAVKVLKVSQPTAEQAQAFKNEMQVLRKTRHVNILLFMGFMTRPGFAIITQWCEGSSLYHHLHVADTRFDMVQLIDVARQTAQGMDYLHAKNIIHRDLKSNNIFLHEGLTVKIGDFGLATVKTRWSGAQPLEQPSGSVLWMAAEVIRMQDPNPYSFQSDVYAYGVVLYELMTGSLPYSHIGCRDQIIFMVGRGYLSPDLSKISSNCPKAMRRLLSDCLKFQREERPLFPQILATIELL
Experimental: Compounds were mixed with assay buffer (50 mmol/L HEPES pH 7.5, 1 mmol/L Ethyleneglycol-bis-(aminoethyl-ether)-N,N,N',N'-tetraacetic acid, 0.01% Brij-35, 10 mmol/L MgCl2, and 2 mmol/L Dithiothreitol), and 5 μL of this solution was transferred to the assay plate. The final concentration of DMSO in the assay was 1%. Hundred percent DMSO was used as a high and low control. Assays were run in singlicate with a reference compound included in each assay to evaluate reproducibility and assay quality.
Wells containing the fluorescent probe, antibody, and target (ARAF) were used as the high reaction control (total binding) and wells containing the probe and antibody were used as the low reaction control (nonspecific binding). […] Next, the substrate antibody solution was added, and the reaction was incubated for 60 minutes at room temperature. Percentage inhibition of each well was calculated using the following formula: % inhibition = 100 − [compound emission ratio (ER) − low control ER/high control ER − low control ER] × 100. Results were fitted to a concentration response curve with a variable slope and constraints of 0 and 100 for bottom and top, respectively, to generate the IC50 values.

[1] = test system: pERK in sNF96.2 (NF1-LOF); assay: pERK modulation in vitro, MSD ELISA, sNF96.2; conditions: SNF96.2, 1 h, read-out: pERK EC50
sNF96.2 = assay: CellTiter-Glo cell viability assay, sNF96.2
NF1-LOF ERMS PDX = assay: Antitumor efficacy in vivo, NF1-LOF ERMS PDX; design: species or system mice; conditions: 25 mg/kg orally daily for 21 days
Experimental: as §1, §2

BRAF wt = test system: BRAF wt; design: method as in earlier work; conditions: full length human construct; 0.125 nmol/L GST-tagged BRAF wild type, 12.5 nmol/L biotinylated MEK, ATP 50 μmol/L; 41 (TAK-632: ref 26-28); cited from earlier work
A375 = assay: CellTiter-Glo cell viability assay, A375
MeWo = assay: CellTiter-Glo cell viability assay, MeWo
[2] = test system: pERK in NF1-LOF tumor cell lines sNF96.2, MeWo, and NCI-H1838; assay: pERK modulation pattern, MSD ELISA, statements on all three NF1-LOF tumor cell lines; conditions: 6 hours after treatment
[3] = test system: AGK::BRAF fusion melanoma PDX; assay: Antitumor efficacy in vivo, AGK::BRAF fusion melanoma PDX; design: species or system mice; conditions: for effect on tumor growth: NOD/SCID mice
Experimental: Female mice with tumors harboring an AGK::BRAF fusion melanoma PDX or NF1-LOF ERMS PDX were established by inoculating NOD or NOG/SCID mice, respectively, with tumor fragments harvested from stock mice. Mice with tumors harboring an NF1-LOF mutation MeWo xenograft were established in 10 mice per treatment group by inoculating 7- to 9-week-old female BALB/c nude mice on the right flank with tumor cells (5 × 10^6) in 0.1 mL of PBS mixed with Matrigel (1:1) for tumor development. For the AGK::BRAF fusion melanoma PDX model, 7- to 8-week-old mice were inoculated subcutaneously on the right flank and randomized into eight mice per treatment group. For the NF1-LOF ERMS PDX model, tumor fragments were harvested from stock animals and implanted unilaterally on the left flank of 6- to 8-week-old mice and then the mice were randomized into 10 mice per treatment group. After tumor cell inoculation, the animals were checked daily for morbidity and mortality. All experiments were performed once.
Purified water (type II or high-performance liquid chromatography grade) was used as aqueous suspension vehicle and control for in vivo efficacy experiments. […] Tovorafenib was freshly prepared every day prior to dosing.
Randomization was performed based on the “Matched distribution” method (StudyDirector software, version 3.1.399.19) with the date of randomization denoted as day 0. Tumor volumes and body weight were measured twice per week after randomization. Tumor volume was measured in two dimensions (2D) using a caliper, and the volume was expressed in mm^3 using the formula V = (L × W × W)/2, in which V was tumor volume, L was tumor length (the longest tumor dimension), and W was tumor width (the longest tumor dimension perpendicular to L). Percentage change in tumor volume and body weight was calculated using StudyDirector software (version 3.1.399.19).
(§3) The mice in the control vehicle group were dosed either daily or twice daily.

BRAF V600E = test system: BRAF V600E; design: method as in PMID 26351322, PMID 30300582; conditions: full length human construct; 0.125 nmol/L GST-tagged BRAF V600E, 100 nmol/L biotinylated MEK, ATP 25 μmol/L; cited from earlier work
NCI-H1838 = assay: CellTiter-Glo cell viability assay, NCI-H1838
PK parameters in mouse = assay type: in vivo; conditions: Mouse PK (at efficacious doses), 12 – 25 mg/kg, QD
Experimental: as §3

pERK in MeWo (NF1-LOF) = assay: pERK modulation in vitro, MSD ELISA, MeWo; conditions: Homo sapiens, 1 h, read-out: pERK EC50

C[C@@H](NC(=O)c1ncnc(N)c1Cl)c1ncc(C(=O)Nc2cc(C(F)(F)F)c(Cl)cn2)s1 [Tovorafenib]
tolerability (NF1-LOF MeWo xenograft): well tolerated
antitumor activity (NF1-LOF MeWo xenograft; BALB/c nude mice): Lack of significant antitumor activity
Cmin (PK parameters in human): 899 ng/mL
AUC(0-t) (PK parameters in human; in vivo, calculated from weekly AUC0-168 divided by 7, read-out: Daily AUC0-24): 47600 ng·h/mL
IC50 (ARAF): 55 nM
EC50 [1]: 1600 nM
EC50 (sNF96.2; SNF96.2, 72 h, read-out: Proliferation EC50): 990 nM
sensitivity of cell line (sNF96.2; sNF96.2, CTG 72 hours): sensitive
antitumor activity (NF1-LOF ERMS PDX): Lack of significant antitumor activity
tolerability (NF1-LOF ERMS PDX): well tolerated
anti-proliferative activity (A375; A375, CTG 72 hours): potent
EC50 (A375; Homo sapiens, A-375, 72 h, read-out: Proliferation EC50): 620 nM
anti-proliferative activity (MeWo; CTG 72 hours): little activity
EC50 (MeWo; Homo sapiens, 72 h, read-out: Proliferation EC50): 7500 nM
day on which tumors started to regrow ([3]; 17.5 mg/kg daily, approximately 2 weeks after the last dosage): 28 days
effect on tumor growth ([3]; 17.5 mg/kg orally daily for 14 days): tumor regression was observed
effect on tumor growth ([3]; 25 mg/kg orally daily for 14 days): tumor regression was observed
tolerability ([3]; 25 and 17.5 mg/kg orally daily, both dose levels): well tolerated
body weight loss ([3]; 25 and 17.5 mg/kg orally daily, throughout the treatment): no significant body weight loss
time tumor regression was sustained after the last dose ([3]; both efficacy studies (25 and 17.5 mg/kg), last dose on day 14): at least 7 days
EC50 (NCI-H1838; Homo sapiens, NCI-H1838, 72 h, read-out: Proliferation EC50): > 10000 nM
anti-proliferative activity (NCI-H1838; NCI-H1838, CTG 72 hours): little activity
Cmin (PK parameters in mouse): 596 to 1265 ng/mL
AUC(0-t) (PK parameters in mouse; plasma, oral, read-out: Daily AUC0-24): 50100 to 96600 ng·h/mL
EC50 (pERK in MeWo (NF1-LOF)): 8300 nM
